# According to article PMC9503898, “Synthesis and Evaluation of Two Long-Acting SSTR2 Antagonists for Radionuclide Therapy of Neuroendocrine Tumors” (Pharmaceuticals, 2022):
# Positions of bridges follow the written chain, without caps; N, C: chain ends. Non-standard residues stand in square brackets, D forms with d. Residues, ends and D or L forms follow the SMILES beside them. *: point of attachment. DOTA = O=C(O)CN1CCN(CC(=O)O)CCN(CC(=O)*)CCN(CC(=O)O)CC1; dPhe(4-NHCONH2) = NC(=O)Nc1ccc(C[C@@H](N)C(=O)O)cc1; Butanoyl(4-(4-MeO-phenyl)) = COc1ccc(CCCC(=O)*)cc1; Butanoyl(4-(4-I-phenyl)) = O=C(CCCc1ccc(I)cc1)*; Dihydroorotyl(S) = O=C1C[C@@H](C(=O)*)NC(=O)N1; Phe(4-Cl) = N[C@@H](Cc1ccc(Cl)cc1)C(=O)O; Phe(4-NH2) = Nc1ccc(C[C@H](N)C(=O)O)cc1
# Key:
# [1] = biological target: T1, SSTR2 receptor (U2OS-SSTR2 cells) (Homo sapiens, UniProt P30874); assay: Competitive binding assay against [^177Lu]Lu-JR11; settings: radioligand [^177Lu]Lu-JR11 10^−9 M, unlabeled compound 10^−12 to 10^−5 M, 90 min, 37 °C, triplicate
# T1 construct: expressed in transfected cells; host or cells: U2OS human osteosarcoma cells stably expressing SSTR2
# Method: Human osteosarcoma cells (U2OS) stably expressing the SSTR2 receptor were used in all in vitro cell assays. Cells were cultured in Dulbecco’s modified Eagle’s medium (DMEM) from Gibco (Paisley, UK) supplemented with 2 mM L-glutamine, 10% fetal bovine serum (FBS), 50 units/mL penicillin, and 50 μg/mL streptomycin (Sigma Aldrich; Haarlerbergweg, The Netherlands) and maintained at 37 °C and in a 5% CO2 humidified chamber. Passages were performed weekly using trypsin/EDTA (0.05%/0.02% w/v).
# Competitive binding experiments against [^177Lu]Lu-JR11 were performed with 8a and 8b in U2OS-SSTR2 cells. Cells were seeded in a 24-well plate 24 h in advance (2 × 10^5 cells/well). On the day of the experiment, medium was removed, and the cells were washed once with PBS (Gibco). Then, solutions containing unlabeled compound 8a or 8b in increasing concentrations (10^−12 to 10^−5 M) in internalization medium (DMEM media, 20 mM HEPES, 1% BSA, pH 7.4) were added, followed by the addition of [^177Lu]Lu-JR11 (10^−9 M). For each concentration, experiments were performed in triplicate. Cells were incubated at 37 °C for 90 min. After incubation, medium was removed, and cells were washed once with PBS and lysed with 0.5 M sodium hydroxide (NaOH) for 10 min at rt. The lysate was transferred to counting tubes, and measurement was performed using the γ-counter.
# [2] = Stability in mouse serum; type: in vitro ADME; settings: % intact radiolabeled ligand, ~3 MBq in 150 μL mouse serum, 37 °C, ACN protein precipitation, radio-HPLC, n = 1
# Method: (§1) The ^177Lu-labeled compounds (~3 MBq) were incubated in PBS (300 μL) at 37 °C. The stability of the radiolabeled peptides was verified by radio-HPLC at 1, 4, and 24 h. The stability in serum was determined by incubating the radiolabeled compounds (~3 MBq) into 150 μL of mouse serum (Merck; Haarlerbergweg, The Netherlands) at 37 °C. At 1, 4, and 24 h post-incubation, the proteins were precipitated by adding an aliquot of 35 μL of the mixture to an equal volume of ACN. The vial was vortexed and centrifuged for 20 min. stability was monitored by radio-HPLC (Figures S4 and S5).
# [3] = Stability in PBS; type: physicochemical; settings: % intact radiolabeled ligand, ~3 MBq in PBS (300 μL), 37 °C, radio-HPLC, n = 1
# Method: as §1
# [4] = biological target: human albumin (Homo sapiens, UniProt P02768); assay: Albumin binding properties (ultrafiltration); settings: ~1 MBq in human albumin/PBS (500 µL, v:v = 1:4), 1 h, 37 °C; Centrifree ultrafiltration 30 KDa; gamma counter; n = 3, mean ± SEM
# [5] = test system: mice bearing SSTR2-positive H69 xenografts; assay: In vivo SPECT/CT imaging; settings: H69 xenograft mice, i.v. 20 MBq/0.5 nmol, n = 4
# [6] = In vivo SPECT/CT imaging; settings: mouse, H69 xenograft tumor, iv, 20 MBq/0.5 nmol per animal, total radioactivity
# [7] = Determination of lipophilicity (LogD7.4, shake-flask); type: physicochemical; settings: n-octanol/PBS (1:1), pH 7.4, PBS/n-octanol 1:1 (1 mL), ~1.5 MBq, gamma counter, n = 3 (triplicate), mean ± SEM, read-out: Log D7.4
# Method: The distribution coefficient (LogD7.4) of the ^177Lu-labeled peptides was determined by the shake-flask method. For each radioligand, the experiment was performed in triplicate. The radiolabeled compound (~1.5 MBq) was added to a solution of phosphate buffered saline (PBS)/n-octanol (1 mL, v:v = 1:1) in eppendorf vials. The vials were vortexed vigorously and centrifuged at 10,000 rpm for 3 min. The n-octanol phase was separated from the aqueous phase, poured into new vials, and centrifuged for 15 min. Samples from each phase (10 μL) were measured using a gamma counter. The LogD7.4 value was calculated using the following equation: […].
# T1 sequence (P30874 whole entry): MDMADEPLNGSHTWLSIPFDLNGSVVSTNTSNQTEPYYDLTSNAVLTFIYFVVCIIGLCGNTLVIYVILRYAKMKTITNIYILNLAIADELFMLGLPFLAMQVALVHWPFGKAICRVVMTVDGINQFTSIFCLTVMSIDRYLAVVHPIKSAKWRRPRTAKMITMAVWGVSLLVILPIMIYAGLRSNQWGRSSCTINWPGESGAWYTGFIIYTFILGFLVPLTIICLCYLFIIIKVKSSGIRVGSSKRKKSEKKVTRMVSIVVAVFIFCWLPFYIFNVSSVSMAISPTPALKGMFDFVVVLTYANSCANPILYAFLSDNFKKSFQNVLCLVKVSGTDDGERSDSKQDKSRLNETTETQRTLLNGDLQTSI
# human albumin, sequence (P02768 25-609): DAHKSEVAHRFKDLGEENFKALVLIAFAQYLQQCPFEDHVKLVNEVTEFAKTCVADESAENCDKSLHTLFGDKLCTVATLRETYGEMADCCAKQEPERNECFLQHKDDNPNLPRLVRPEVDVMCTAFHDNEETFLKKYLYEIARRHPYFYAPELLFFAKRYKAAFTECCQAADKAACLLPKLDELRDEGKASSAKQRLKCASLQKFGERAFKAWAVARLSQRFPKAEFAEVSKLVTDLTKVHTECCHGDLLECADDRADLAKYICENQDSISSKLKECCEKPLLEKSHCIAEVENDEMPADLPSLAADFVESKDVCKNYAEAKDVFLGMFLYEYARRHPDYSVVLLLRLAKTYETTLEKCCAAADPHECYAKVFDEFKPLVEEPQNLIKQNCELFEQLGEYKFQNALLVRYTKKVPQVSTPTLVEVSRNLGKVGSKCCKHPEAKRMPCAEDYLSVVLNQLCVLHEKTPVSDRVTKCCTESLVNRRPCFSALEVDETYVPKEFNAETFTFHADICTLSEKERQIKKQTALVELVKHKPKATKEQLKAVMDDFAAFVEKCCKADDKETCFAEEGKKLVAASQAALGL
smiles,measurement,setting,value
"C[C@@H](O)[C@@H]1NC(=O)[C@H](CCCCN)NC(=O)[C@@H](Cc2ccc(NC(N)=O)cc2)NC(=O)[C@H](Cc2ccc(NC(=O)[C@@H]3CC(=O)NC(=O)N3)cc2)NC(=O)[C@H](NC(=O)[C@H](Cc2ccc(Cl)cc2)NC(=O)[C@H](CCCCNC(=O)CCCc2ccc(I)cc2)NC(=O)CN2CCN(CC(=O)O)CCN(CC(=O)O)CCN(CC(=O)O)CC2)CSSC[C@@H](C(=O)N[C@H](Cc2ccc(O)cc2)C(N)=O)NC1=O [8a, DOTA-Lys(4-(p-iodophenyl)butyryl)-Phe(4-Cl)-c[D-Cys-Aph(Hor)-D-Aph(Cbm)-Lys-Thr-Cys]-D-Tyr-NH2] ({DOTA}-K(Butanoyl(4-(4-I-phenyl)))[Phe(4-Cl)][dC][Phe(4-NH2)](Dihydroorotyl(S))[dPhe(4-NHCONH2)]KTC[dY]-NH2; disulfide 3-8)",IC50,[1],80 ± 0.43 nM
"COc1ccc(CCCC(=O)NCCCC[C@H](NC(=O)CN2CCN(CC(=O)O)CCN(CC(=O)O)CCN(CC(=O)O)CC2)C(=O)N[C@@H](Cc2ccc(Cl)cc2)C(=O)N[C@@H]2CSSC[C@@H](C(=O)N[C@H](Cc3ccc(O)cc3)C(N)=O)NC(=O)[C@H]([C@@H](C)O)NC(=O)[C@H](CCCCN)NC(=O)[C@@H](Cc3ccc(NC(N)=O)cc3)NC(=O)[C@H](Cc3ccc(NC(=O)[C@@H]4CC(=O)NC(=O)N4)cc3)NC2=O)cc1 [8b, DOTA-Lys(4-(p-methoxyphenyl)butyryl)-Phe(4-Cl)-c[D-Cys-Aph(Hor)-D-Aph(Cbm)-Lys-Thr-Cys]-D-Tyr-NH2] ({DOTA}-K(Butanoyl(4-(4-MeO-phenyl)))[Phe(4-Cl)][dC][Phe(4-NH2)](Dihydroorotyl(S))[dPhe(4-NHCONH2)]KTC[dY]-NH2; disulfide 3-8)",IC50,[1],130 ± 0.3 nM
"C[C@@H](O)[C@@H]1NC(=O)[C@H](CCCCN)NC(=O)[C@@H](Cc2ccc(NC(N)=O)cc2)NC(=O)[C@H](Cc2ccc(NC(=O)[C@@H]3CC(=O)NC(=O)N3)cc2)NC(=O)[C@H](NC(=O)[C@H](Cc2ccc(Cl)cc2)NC(=O)CN2CCN(CC(=O)O)CCN(CC(=O)O)CCN(CC(=O)O)CC2)CSSC[C@@H](C(=O)N[C@H](Cc2ccc(O)cc2)C(N)=O)NC1=O [JR11, reference compound] ({DOTA}-[Phe(4-Cl)][dC][Phe(4-NH2)](Dihydroorotyl(S))[dPhe(4-NHCONH2)]KTC[dY]-NH2; disulfide 2-7)",IC50,[1],2.7 ± 0.26 nM
"COc1ccc(CCCC(=O)NCCCC[C@H](NC(=O)CN2CCN(CC(=O)O)CCN(CC(=O)O)CCN(CC(=O)O)CC2)C(=O)N[C@@H](Cc2ccc(Cl)cc2)C(=O)N[C@@H]2CSSC[C@@H](C(=O)N[C@H](Cc3ccc(O)cc3)C(N)=O)NC(=O)[C@H]([C@@H](C)O)NC(=O)[C@H](CCCCN)NC(=O)[C@@H](Cc3ccc(NC(N)=O)cc3)NC(=O)[C@H](Cc3ccc(NC(=O)[C@@H]4CC(=O)NC(=O)N4)cc3)NC2=O)cc1 [[^177Lu]Lu-8b, metal not drawn] ({DOTA}-K(Butanoyl(4-(4-MeO-phenyl)))[Phe(4-Cl)][dC][Phe(4-NH2)](Dihydroorotyl(S))[dPhe(4-NHCONH2)]KTC[dY]-NH2; disulfide 3-8)",remaining at 1 h,[2]; 1 h,98%
same,remaining at 4 h,[2]; 4 h,97.9%
same,remaining at 24 h,[2]; 24 h,98.5%
same,Stability in PBS (%) 1 h,[3]; 1 h,97.1%
same,Stability in PBS (%) 4 h,[3]; 4 h,96.4%
same,Stability in PBS (%) 24 h,[3]; 24 h,95.4%
same,Protein-Bound Fraction (%),[4],56.3 ± 1.4%
same,"SPECT quantification, kidneys (K), 4 h",[5]; 4 h post-injection,14.8 ± 1.2 % ID/mL
same,"SPECT quantification, kidneys (K), 24 h",[5]; 24 h post-injection,7.5 ± 0.4 % ID/mL
same,"SPECT quantification, kidneys (K), 48 h",[5]; 48 h post-injection,4.3 ± 0.3 % ID/mL
same,"SPECT quantification, kidneys (K), 72 h",[5]; 72 h post-injection,3.1 ± 0.5 % ID/mL
same,tissue uptake per volume at 4 h,[6],2.7 ± 0.2 %ID/mL
same,tissue uptake per volume at 24 h,[6],1 ± 0.1 %ID/mL
same,tissue uptake per volume at 48 h,[6],0.8 ± 0.1 %ID/mL
same,tissue uptake per volume at 72 h,[6],0.6 ± 0.1 %ID/mL
same,logD,[7],-2.07 ± 0.02
